From PubChem BioAssay AID1259407 (Chemical Carcinogenesis Research Information System (CCRIS), 2018)
Calls of active or inactive are those of the source. How the calls were made is not given here.

System: CCRIS mutagenicity, Ames/micronucleus/aberration tests
Assay: CCRIS mutagenicity studies
[1] = Test System: AMES SALMONELLA TYPHIMURIUM, Strain/Indicator: TA1538, Metabolic Activation: RAT, LIVER, S-9, AROCLOR 1254, Method: STANDARD PLATE

OCCN(CCO)CCO
mutagenic call (End Point: IN VITRO CHROMOSOMAL ABERRATIONS, Test System: CHINESE HAMSTER OVARY CELLS, Metabolic Activation: NONE): inactive; negative
mutagenic call (End Point: IN VITRO CHROMOSOMAL ABERRATIONS, Test System: CHINESE HAMSTER OVARY CELLS, Metabolic Activation: RAT, LIVER, S-9, AROCLOR 1254): inactive; negative
mutagenic call (End Point: IN VITRO CHROMOSOMAL ABERRATIONS, Test System: CHO, Metabolic Activation: NONE): inactive; negative
mutagenic call (End Point: IN VITRO CHROMOSOMAL ABERRATIONS, Test System: CHO, Metabolic Activation: RAT, LIVER, S-9, AROCLOR 1254): inactive; negative
mutagenic call (End Point: IN VIVO MICRONUCLEUS, Test System: POLYCHROMATIC BLOOD LYMPHOCYTES, Species: MOUSE, Strain/Sex: B6C3F1/MALE, FEMALE, Route: DERMAL): inactive; negative
mutagenic call (Test System: AMES SALMONELLA TYPHIMURIUM, Strain/Indicator: TA98, Metabolic Activation: HAMSTER LIVER S-9, AROCLOR-1254 (10%), Method: PREINCUBATION): inactive; negative
mutagenic call (Test System: AMES SALMONELLA TYPHIMURIUM, Strain/Indicator: TA98, Metabolic Activation: HAMSTER, LIVER, S-9 (10%), AROCLOR 1254, Method: PREINCUBATION): inactive; negative
mutagenic call (Test System: AMES SALMONELLA TYPHIMURIUM, Strain/Indicator: TA98, Metabolic Activation: NONE, Method: PREINCUBATION): inactive; negative
mutagenic call (Test System: AMES SALMONELLA TYPHIMURIUM, Strain/Indicator: TA98, Metabolic Activation: RAT LIVER S-9, AROCLOR-1254 (10%), Method: PREINCUBATION): inactive; negative
mutagenic call (Test System: AMES SALMONELLA TYPHIMURIUM, Strain/Indicator: TA98, Metabolic Activation: RAT, LIVER, S-9 (10%), AROCLOR 1254, Method: PREINCUBATION): inactive; negative
mutagenic call (Test System: AMES SALMONELLA TYPHIMURIUM, Strain/Indicator: TA100, Metabolic Activation: HAMSTER LIVER S-9, AROCLOR-1254 (10%), Method: PREINCUBATION): inactive; negative
mutagenic call (Test System: AMES SALMONELLA TYPHIMURIUM, Strain/Indicator: TA100, Metabolic Activation: HAMSTER, LIVER, S-9 (10%), AROCLOR 1254, Method: PREINCUBATION): inactive; negative
mutagenic call (Test System: AMES SALMONELLA TYPHIMURIUM, Strain/Indicator: TA100, Metabolic Activation: NONE, Method: PREINCUBATION): inactive; negative
mutagenic call (Test System: AMES SALMONELLA TYPHIMURIUM, Strain/Indicator: TA100, Metabolic Activation: RAT LIVER S-9, AROCLOR-1254 (10%), Method: PREINCUBATION): inactive; negative
mutagenic call (Test System: AMES SALMONELLA TYPHIMURIUM, Strain/Indicator: TA100, Metabolic Activation: RAT, LIVER, S-9 (10%), AROCLOR 1254, Method: PREINCUBATION): inactive; negative
mutagenic call (Test System: AMES SALMONELLA TYPHIMURIUM, Strain/Indicator: TA1535, Metabolic Activation: HAMSTER LIVER S-9, AROCLOR-1254 (10%), Method: PREINCUBATION): inactive; negative
mutagenic call (Test System: AMES SALMONELLA TYPHIMURIUM, Strain/Indicator: TA1535, Metabolic Activation: HAMSTER, LIVER, S-9 (10%), AROCLOR 1254, Method: PREINCUBATION): inactive; negative
mutagenic call (Test System: AMES SALMONELLA TYPHIMURIUM, Strain/Indicator: TA1535, Metabolic Activation: NONE, Method: PREINCUBATION): inactive; negative
mutagenic call (Test System: AMES SALMONELLA TYPHIMURIUM, Strain/Indicator: TA1535, Metabolic Activation: RAT LIVER S-9, AROCLOR-1254 (10%), Method: PREINCUBATION): inactive; negative
mutagenic call (Test System: AMES SALMONELLA TYPHIMURIUM, Strain/Indicator: TA1535, Metabolic Activation: RAT, LIVER, S-9 (10%), AROCLOR 1254, Method: PREINCUBATION): inactive; negative
mutagenic call (Test System: AMES SALMONELLA TYPHIMURIUM, Strain/Indicator: TA1537, Metabolic Activation: HAMSTER LIVER S-9, AROCLOR-1254 (10%), Method: PREINCUBATION): inactive; negative
mutagenic call (Test System: AMES SALMONELLA TYPHIMURIUM, Strain/Indicator: TA1537, Metabolic Activation: HAMSTER, LIVER, S-9 (10%), AROCLOR 1254, Method: PREINCUBATION): inactive; negative
mutagenic call (Test System: AMES SALMONELLA TYPHIMURIUM, Strain/Indicator: TA1537, Metabolic Activation: NONE, Method: PREINCUBATION): inactive; negative
mutagenic call (Test System: AMES SALMONELLA TYPHIMURIUM, Strain/Indicator: TA1537, Metabolic Activation: RAT LIVER S-9, AROCLOR-1254 (10%), Method: PREINCUBATION): inactive; negative
mutagenic call (Test System: AMES SALMONELLA TYPHIMURIUM, Strain/Indicator: TA1537, Metabolic Activation: RAT, LIVER, S-9 (10%), AROCLOR 1254, Method: PREINCUBATION): inactive; negative

c1cnc2c(c1)-c1ncsc1CC2
mutagenic call [1]: inactive; negative

CCCCC/C=C/C(=O)CCc1ccc(O)c(OC)c1
mutagenic call (Test System: AMES SALMONELLA TYPHIMURIUM, Strain/Indicator: TA98, Metabolic Activation: NONE, Method: STANDARD PLATE): inactive; negative
mutagenic call (Test System: AMES SALMONELLA TYPHIMURIUM, Strain/Indicator: TA98, Metabolic Activation: RAT, LIVER, S-9, AROCLOR 1254, Method: STANDARD PLATE): inactive; negative
mutagenic call (Test System: AMES SALMONELLA TYPHIMURIUM, Strain/Indicator: TA100, Metabolic Activation: NONE, Method: STANDARD PLATE): inactive; negative
mutagenic call (Test System: AMES SALMONELLA TYPHIMURIUM, Strain/Indicator: TA100, Metabolic Activation: RAT, LIVER, S-9, AROCLOR 1254, Method: STANDARD PLATE): active; positive
mutagenic call (Test System: AMES SALMONELLA TYPHIMURIUM, Strain/Indicator: TA1535, Metabolic Activation: NONE, Method: STANDARD PLATE): inactive; negative
mutagenic call (Test System: AMES SALMONELLA TYPHIMURIUM, Strain/Indicator: TA1535, Metabolic Activation: RAT, LIVER, S-9, AROCLOR 1254, Method: STANDARD PLATE): active; positive
mutagenic call (Test System: AMES SALMONELLA TYPHIMURIUM, Strain/Indicator: TA1538, Metabolic Activation: NONE, Method: STANDARD PLATE): inactive; negative
mutagenic call [1]: inactive; negative

COc1cc(-c2ccc(N/N=C3\C(=O)c4ccc(N)cc4C=C3S(=O)(=O)O)c(OC)c2)ccc1N/N=C1/C=C(S(=O)(=O)O)c2ccccc2C1=O
mutagenic call (Test System: AMES SALMONELLA TYPHIMURIUM, Strain/Indicator: TA98, Metabolic Activation: HAMSTER, LIVER, S-9, Method: PREINCUBATION (PRIVAL METHOD)): active; positive

C=C1C[C@@]23CC[C@H]4[C@@](C)(CCC[C@@]4(C)C(=O)O)[C@@H]2CC[C@]1(O[C@@H]1O[C@H](CO)[C@@H](O)[C@H](O[C@@H]2O[C@H](CO)[C@@H](O)[C@H](O)[C@H]2O)[C@H]1O[C@@H]1O[C@H](CO)[C@@H](O)[C@H](O)[C@H]1O)C3
mutagenic call (Test System: AMES SALMONELLA TYPHIMURIUM, Strain/Indicator: TM677, Metabolic Activation: RAT, LIVER, S-9, AROCLOR 1254, Method: PREINCUBATION): inactive; negative

C=CC(=O)OCCOC1CC2CC1C1CC=CC21 (stereo not drawn)
mutagenic call (Test System: MOUSE LYMPHOMA, Strain/Indicator: L5178Y (TK+/TK-), Metabolic Activation: NONE, Method: SUSPENSION/PLATE): active; positive

CC(C)NCC(O)c1ccc(NS(C)(=O)=O)cc1 (stereo not drawn)
mutagenic call (Test System: AMES SALMONELLA TYPHIMURIUM, Strain/Indicator: TA98, Metabolic Activation: NONE): inactive; negative
mutagenic call (Test System: AMES SALMONELLA TYPHIMURIUM, Strain/Indicator: TA98, Metabolic Activation: RAT, LIVER, S-9, AROCLOR 1254): inactive; negative
mutagenic call (Test System: AMES SALMONELLA TYPHIMURIUM, Strain/Indicator: TA100, Metabolic Activation: NONE): inactive; negative
mutagenic call (Test System: AMES SALMONELLA TYPHIMURIUM, Strain/Indicator: TA100, Metabolic Activation: RAT, LIVER, S-9, AROCLOR 1254): inactive; negative
mutagenic call (Test System: AMES SALMONELLA TYPHIMURIUM, Strain/Indicator: TA1535, Metabolic Activation: NONE): inactive; negative
mutagenic call (Test System: AMES SALMONELLA TYPHIMURIUM, Strain/Indicator: TA1535, Metabolic Activation: RAT, LIVER, S-9, AROCLOR 1254): inactive; negative
mutagenic call (Test System: AMES SALMONELLA TYPHIMURIUM, Strain/Indicator: TA1537, Metabolic Activation: NONE): inactive; negative
mutagenic call (Test System: AMES SALMONELLA TYPHIMURIUM, Strain/Indicator: TA1537, Metabolic Activation: RAT, LIVER, S-9, AROCLOR 1254): inactive; negative
mutagenic call (Test System: UDS HUMAN HEPATOCYTES, Strain/Indicator: THY INCORP, Metabolic Activation: NONE, Method: AUTORADIOGRAPHY): inactive; negative
mutagenic call (Test System: UDS RAT HEPATOCYTES, Strain/Indicator: THY INCORP, Metabolic Activation: NONE, Method: AUTORADIOGRAPHY): inactive; negative

O=[N+]([O-])c1ccc(Cl)c(F)c1
mutagenic call (End Point: IN VITRO CHROMOSOMAL ABERRATIONS, Test System: HUMAN PERIPHERAL LYMPHOCYTES, Metabolic Activation: NONE): inactive; negative
